Source: PubChem BioAssay AID1259407 (Chemical Carcinogenesis Research Information System (CCRIS), 2018)
Calls of active or inactive are those of the source. No rule for the calls is given here.

System: CCRIS mutagenicity, Ames/micronucleus/aberration tests
Experiment: CCRIS mutagenicity studies

ClCCl
mutagenic call (End Point: IN VITRO CHROMOSOMAL ABERRATIONS, Test System: CHO CELLS, Metabolic Activation: NONE): inactive; negative | mutagenic call (End Point: IN VITRO CHROMOSOMAL ABERRATIONS, Test System: CHO CELLS, Metabolic Activation: RAT, LIVER, S-9, AROCLOR 1254): inactive; negative | mutagenic call (Test System: AMES SALMONELLA TYPHIMURIUM, Strain/Indicator: NG54 (GSH), Metabolic Activation: GLUTATHIONE): active; positive | mutagenic call (Test System: AMES SALMONELLA TYPHIMURIUM, Strain/Indicator: NG54 (GSH), Metabolic Activation: NONE): active; positive | mutagenic call (Test System: AMES SALMONELLA TYPHIMURIUM, Strain/Indicator: NG54 (GSH), Metabolic Activation: RAT, LIVER, S-9, AROCLOR 1254): active; positive | mutagenic call (Test System: AMES SALMONELLA TYPHIMURIUM, Strain/Indicator: NG54 (GSH), Metabolic Activation: RAT, LIVER, S-9, AROCLOR 1254, GLUTATHIONE): active; positive | mutagenic call (Test System: AMES SALMONELLA TYPHIMURIUM, Strain/Indicator: NG-11, Metabolic Activation: GLUTATHIONE, Method: DESICCATOR): active; positive | mutagenic call (Test System: AMES SALMONELLA TYPHIMURIUM, Strain/Indicator: NG-11, Metabolic Activation: NONE, Method: DESICCATOR): active; positive | mutagenic call (Test System: AMES SALMONELLA TYPHIMURIUM, Strain/Indicator: RSJ100, Metabolic Activation: NONE, Method: STANDARD PLATE): active; positive | mutagenic call (Test System: AMES SALMONELLA TYPHIMURIUM, Strain/Indicator: TA97, Metabolic Activation: NONE, Method: STANDARD PLATE): active; positive | mutagenic call (Test System: AMES SALMONELLA TYPHIMURIUM, Strain/Indicator: TA97, Metabolic Activation: RAT, LIVER, S-9, AROCLOR 1254, Method: STANDARD PLATE): active; positive | mutagenic call (Test System: AMES SALMONELLA TYPHIMURIUM, Strain/Indicator: TA98, Metabolic Activation: NONE, Method: GAS EXPOSURE): active; positive | mutagenic call (Test System: AMES SALMONELLA TYPHIMURIUM, Strain/Indicator: TA98, Metabolic Activation: NONE, Method: STANDARD PLATE): inactive; negative | mutagenic call (Test System: AMES SALMONELLA TYPHIMURIUM, Strain/Indicator: TA98, Metabolic Activation: RAT, LIVER, S-9, AROCLOR 1254, Method: STANDARD PLATE): active; positive | mutagenic call (Test System: AMES SALMONELLA TYPHIMURIUM, Strain/Indicator: TA98, Metabolic Activation: RAT, LIVER, S-9, PHENOBARBITAL AND BETA-NAPHTHOFLAVONE, Method: GAS EXPOSURE): active; positive | mutagenic call (Test System: AMES SALMONELLA TYPHIMURIUM, Strain/Indicator: TA98, Metabolic Activation: RAT, LIVER, S-9, PHENOBARBITAL, Method: DESICCATOR): active; positive | mutagenic call (Test System: AMES SALMONELLA TYPHIMURIUM, Strain/Indicator: TA100, Metabolic Activation: GLUTATHIONE): active; positive | mutagenic call (Test System: AMES SALMONELLA TYPHIMURIUM, Strain/Indicator: TA100, Metabolic Activation: GLUTATHIONE, Method: DESICCATOR): active; positive | mutagenic call (Test System: AMES SALMONELLA TYPHIMURIUM, Strain/Indicator: TA100, Metabolic Activation: NONE): active; positive | mutagenic call (Test System: AMES SALMONELLA TYPHIMURIUM, Strain/Indicator: TA100, Metabolic Activation: NONE, Method: DESICCATOR): active; positive | mutagenic call (Test System: AMES SALMONELLA TYPHIMURIUM, Strain/Indicator: TA100, Metabolic Activation: NONE, Method: GAS EXPOSURE): active; positive | mutagenic call (Test System: AMES SALMONELLA TYPHIMURIUM, Strain/Indicator: TA100, Metabolic Activation: RAT, LIVER, MICROSOMES, AROCLOR 1254): active; positive | mutagenic call (Test System: AMES SALMONELLA TYPHIMURIUM, Strain/Indicator: TA100, Metabolic Activation: RAT, LIVER, S-9, AROCLOR 1254): active; positive | mutagenic call (Test System: AMES SALMONELLA TYPHIMURIUM, Strain/Indicator: TA100, Metabolic Activation: RAT, LIVER, S-9, AROCLOR 1254, GLUTATHIONE): active; positive | mutagenic call (Test System: AMES SALMONELLA TYPHIMURIUM, Strain/Indicator: TA100, Metabolic Activation: RAT, LIVER, S-9, AROCLOR 1254, Method: STANDARD PLATE): active; positive | mutagenic call (Test System: AMES SALMONELLA TYPHIMURIUM, Strain/Indicator: TA100, Metabolic Activation: RAT, LIVER, S-9, PHENOBARBITAL AND BETA-NAPHTHOFLAVONE, Method: GAS EXPOSURE): active; positive | mutagenic call (Test System: AMES SALMONELLA TYPHIMURIUM, Strain/Indicator: TA100, Metabolic Activation: RAT, LIVER, S-9, PHENOBARBITAL, Method: DESICCATOR): active; positive | mutagenic call (Test System: AMES SALMONELLA TYPHIMURIUM, Strain/Indicator: TA100, Metabolic Activation: RAT, LIVER, S-100, AROCLOR 1254): active; positive | mutagenic call (Test System: AMES SALMONELLA TYPHIMURIUM, Strain/Indicator: TA102, Metabolic Activation: NONE, Method: STANDARD PLATE): inactive; negative | mutagenic call (Test System: AMES SALMONELLA TYPHIMURIUM, Strain/Indicator: TA104, Metabolic Activation: NONE, Method: STANDARD PLATE): active; positive | mutagenic call (Test System: AMES SALMONELLA TYPHIMURIUM, Strain/Indicator: TA104, Metabolic Activation: RAT, LIVER, S-9, AROCLOR 1254, Method: STANDARD PLATE): inactive; negative | mutagenic call (Test System: AMES SALMONELLA TYPHIMURIUM, Strain/Indicator: TA1535 (GST+), Metabolic Activation: NONE, Method: STANDARD PLATE): active; positive | mutagenic call (Test System: AMES SALMONELLA TYPHIMURIUM, Strain/Indicator: TA1535, Metabolic Activation: NONE, Method: GAS EXPOSURE): active; positive | mutagenic call (Test System: AMES SALMONELLA TYPHIMURIUM, Strain/Indicator: TA1535, Metabolic Activation: NONE, Method: STANDARD PLATE): inactive; negative | mutagenic call (Test System: AMES SALMONELLA TYPHIMURIUM, Strain/Indicator: TA1535, Metabolic Activation: RAT, LIVER, S-9, PHENOBARBITAL AND BETA-NAPHTHOFLAVONE, Method: GAS EXPOSURE): active; positive | mutagenic call (Test System: AMES SALMONELLA TYPHIMURIUM, Strain/Indicator: TA1537, Metabolic Activation: NONE, Method: GAS EXPOSURE): inactive; negative | mutagenic call (Test System: AMES SALMONELLA TYPHIMURIUM, Strain/Indicator: TA1537, Metabolic Activation: RAT, LIVER, S-9, PHENOBARBITAL AND BETA-NAPHTHOFLAVONE, Method: GAS EXPOSURE): inactive; negative | mutagenic call (Test System: AMES SALMONELLA TYPHIMURIUM, Strain/Indicator: TA2638, Metabolic Activation: NONE, Method: STANDARD PLATE): inactive; negative | mutagenic call (Test System: CHINESE HAMSTER OVARY, Strain/Indicator: CHO-K1 (HPRT)/6-THIOGUANINE, Metabolic Activation: MOUSE, LIVER, S-100 (2.5-25%), 5 MILLIMOLAR GLUTATHIONE, Method: SUSPENSION/PLATE): active; positive | mutagenic call (Test System: CHINESE HAMSTER OVARY, Strain/Indicator: CHO-K1 (HPRT)/6-THIOGUANINE, Metabolic Activation: MOUSE, LIVER, S-100 (15-25%), DL-BUTHIONINE-(S,R)-SULFOXIMINE, Method: SUSPENSION): inactive; negative | mutagenic call (Test System: CHINESE HAMSTER OVARY, Strain/Indicator: CHO-K1 (HPRT)/6-THIOGUANINE, Metabolic Activation: MOUSE, LIVER, S-100 (15-35%), 5 MILLIMOLAR GLUTATHIONE, Method: SUSPENSION): active; positive | mutagenic call (Test System: E. COLI, Strain/Indicator: K12(AB1157), Metabolic Activation: MOUSE, LIVER, S-9, Method: SUSPENSION/PLATE): active; positive | mutagenic call (Test System: E. COLI, Strain/Indicator: K12(AB1157), Metabolic Activation: NONE, Method: SUSPENSION/PLATE): inactive; negative | mutagenic call (Test System: E. COLI, Strain/Indicator: K12(AB1157), Metabolic Activation: RAT, LIVER, S-9, Method: SUSPENSION/PLATE): inactive; negative | mutagenic call (Test System: E. COLI, Strain/Indicator: K12(AB1886) UVRA, Metabolic Activation: MOUSE, LIVER, S-9, Method: SUSPENSION/PLATE): inactive; negative | mutagenic call (Test System: E. COLI, Strain/Indicator: K12(AB1886) UVRA, Metabolic Activation: NONE, Method: SUSPENSION/PLATE): inactive; negative | mutagenic call (Test System: E. COLI, Strain/Indicator: K12(AB1886) UVRA, Metabolic Activation: RAT, LIVER, S-9, Method: SUSPENSION/PLATE): inactive; negative | mutagenic call (Test System: E. COLI, Strain/Indicator: WP2 (PKM101), Metabolic Activation: NONE, Method: STANDARD PLATE): inactive; negative | mutagenic call (Test System: E. COLI, Strain/Indicator: WP2 UVRA (PKM101), Metabolic Activation: NONE): active; positive | mutagenic call (Test System: E. COLI, Strain/Indicator: WP2 UVRA (PKM101), Metabolic Activation: NONE, Method: STANDARD PLATE): inactive; negative | mutagenic call (Test System: E. COLI, Strain/Indicator: WP2 UVRA (PKM101), Metabolic Activation: RAT, LIVER, HOMOGENATE, AROCLOR 1254): active; positive | mutagenic call (Test System: E. COLI, Strain/Indicator: WP2 UVRA (PKM101), Metabolic Activation: RAT, LIVER, MICROSOMES, AROCLOR 1254): active; positive | mutagenic call (Test System: E. COLI, Strain/Indicator: WP2 UVRA (PKM101), Metabolic Activation: RAT, LIVER, S-9, AROCLOR 1254): active; positive | mutagenic call (Test System: E. COLI, Strain/Indicator: WP2 UVRA (PKM101), Metabolic Activation: RAT, LIVER, S-100, AROCLOR 1254): active; positive | mutagenic call (Test System: E. COLI, Strain/Indicator: WP2UVRA/PKM101, Metabolic Activation: NONE, Method: GAS EXPOSURE): active; positive | mutagenic call (Test System: E. COLI, Strain/Indicator: WP2UVRA/PKM101, Metabolic Activation: RAT, LIVER, S-9, PHENOBARBITAL AND BETA-NAPHTHOFLAVONE, Method: GAS EXPOSURE): active; positive | mutagenic call (Test System: E. COLI, Strain/Indicator: WP2UVRA, Metabolic Activation: NONE, Method: GAS EXPOSURE): active; positive | mutagenic call (Test System: E. COLI, Strain/Indicator: WP2UVRA, Metabolic Activation: RAT, LIVER, S-9, PHENOBARBITAL AND BETA-NAPHTHOFLAVONE, Method: GAS EXPOSURE): active; positive | mutagenic call (Test System: Mouse lymphoma, Strain/Indicator: L5178Y (tk+/tk-), Metabolic Activation: None, Method: Suspension/plate): inactive; negative | mutagenic call (Test System: Mouse lymphoma, Strain/Indicator: L5178Y (tk+/tk-), Metabolic Activation: Rat, Liver, S-9, Aroclor 1254, Method: Suspension/plate): inactive; negative
